Assay results reported in ChEMBL document CHEMBL1146310, “Amplification of DNA-binding affinities of protoberberine alkaloids by appended polyamines” (Bioorg Med Chem Lett, 2007).

test system: DNA; experiment: Binding affinity to calf thymus DNA; type: nucleic-acid assay; details: Bos taurus

Kapp	Structure (SMILES)
1.08 10^7/M	COc1cc2c(cc1OCCCNC(=O)C(N)CCCCN)CC[n+]1cc3c(OCCCNC(=O)C(N)CCCCN)c(OC)ccc3cc1-2 (centres undefined)
2.81 10^5/M	COc1cc2c(cc1OCCCN)CC[n+]1cc3c(OCCCN)c(OC)ccc3cc1-2
1.15 10^7/M	COc1cc2c(cc1OCCCNC(=O)C(N)CCCCNC(=O)C(N)CCCCN)CC[n+]1cc3c(OCCCNC(=O)C(N)CCCCNC(=O)C(N)CCCCN)c(OC)ccc3cc1-2 (centres undefined)
8.72 10^3/M	COc1cc2c(cc1OC)-c1cc3ccc(OC)c(OC)c3c[n+]1CC2
